Results reported in US20080221086A1, “Novel Inhibitors of Glutaminyl Cyclase” (PROBIODRUG AG, priority 2006, published 2008).

biological target: hQC (Homo sapiens, UniProt Q16769); test: Fluorometric assay of glutaminyl cyclase (QC) inhibition, H-Gln-βNA or H-Gln-AMC substrate; format: biochemical; conditions: compound from preparative synthesis, purified by chromatography; fluorescent assay; read-out: IC50 hQC
In short: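 Ki values were obtained by fitting progress curves to a competitive-inhibition equation, and the rapid screen used 4 mM inhibitor with substrate at 1 KM. Both readouts coupled pyroglutamyl aminopeptidase at pH 8.0 and 30° C: H-Gln-βNA at 0.2 mM (ex/em 320/410 nm) or H-Gln-AMC (380/460 nm).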

Chain of hQC (Q16769 29-361): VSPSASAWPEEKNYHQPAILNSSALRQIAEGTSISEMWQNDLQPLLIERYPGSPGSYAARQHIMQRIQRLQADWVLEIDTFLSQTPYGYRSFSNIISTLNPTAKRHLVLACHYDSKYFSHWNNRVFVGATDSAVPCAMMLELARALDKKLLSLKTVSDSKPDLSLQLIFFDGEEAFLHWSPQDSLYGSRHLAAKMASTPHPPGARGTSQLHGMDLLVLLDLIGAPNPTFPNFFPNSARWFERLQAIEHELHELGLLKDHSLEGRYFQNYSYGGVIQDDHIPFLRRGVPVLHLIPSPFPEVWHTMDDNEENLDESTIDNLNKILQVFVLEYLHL

IC50 | Compound
0.0195 µM | O=C1N/C(=N/Cc2ccccc2)C(c2ccc(Cl)cc2)N1c1ccc2[nH]cnc2c1 (stereo not drawn) [Compound 162, 1-(1H-Benzoimidazol-5-yl)-4-benzylimino-5-(4-chloro-phenyl)-imidazolidin-2-one]

same assay, conditions: read-out: IC50

Compound | IC50
O=C(C/N=C1/NC(=O)N(CCCn2ccnc2)C1c1ccccc1)N1CCc2ccccc2C1 (stereo not drawn) [Compound 66, 4-2-(3,4-Dihydro-1H-isoquinolin-2-yl)-2-oxo-ethylimino-1-(3-imidazol-1-yl-propyl)-5-phenyl-imidazolidin-2-one] | 4 µM
O=C1N/C(=N/Cc2ccccc2)C(c2ccc(Cl)c(F)c2)N1CCCn1ccnc1 (stereo not drawn) [Compound 96, 4-Benzylimino-5-(4-chloro-3-fluoro-phenyl)-1-(3-imidazol-1-yl-propyl)-imidazolidin-2-one] | 6.7 µM
O=C(C/N=C1/NC(=O)N(c2ccc3[nH]cnc3c2)C1c1cccc(Br)c1)N1CCSCC1 (stereo not drawn) [Compound 342, 1-(1H-Benzoimidazol-5-yl)-5-(3-bromo-phenyl)-4-2-oxo-2-thiomorpholin-4-yl-ethylimino-imidazolidin-2-one] | 0.4 µM
S=C1N/C(=N\C(Cc2ccccc2)c2ccccc2)C(C2=CCCCC2)N1c1ccc2[nH]cnc2c1 (stereo not drawn) [Compound 240, 1-(1H-Benzoimidazol-5-yl)-5-cyclohex-1-enyl-4-1,2-diphenyl-ethylimino-imidazolidine-2-thione] | 8.5 µM
O=C1N/C(=N\C2CCCCC2)C(C2CCC=CO2)N1CCCn1ccnc1 (stereo not drawn) [Compound 2, 4-Cyclohexylimino-5-(3,4-dihydro-2H-pyran-2-yl)-1-(3-imidazol-1-yl-propyl)-imidazolidin-2-one] | 5 µM
O=C1N/C(=N\C2CCCc3ccccc32)C(c2c(F)ccc(Cl)c2F)N1c1ccc2nc[nH]c2c1 (stereo not drawn) [Compound 228, 1-(3H-Benzoimidazol-5-yl)-5-(3-chloro-2,6-difluoro-phenyl)-4-1,2,3,4-tetrahydro-naphthalen-1-ylimino-imidazolidin-2-one] | 0.004 µM
O=C(C/N=C1\NC(=S)N(c2ccc3[nH]cnc3c2)C1c1cc2c(cc1Br)OCO2)NN1CCCCC1 (stereo not drawn) [Compound 143] | 2.2 µM
O=C1N/C(=N\CCc2cccs2)C(c2ccccc2F)N1CCCn1ccnc1 (stereo not drawn) [Compound 44, 5-(2-Fluoro-phenyl)-1-(3-imidazol-1-yl-propyl)-4-(2-thiophen-2-yl-ethylimino)-imidazolidin-2-one] | 5.8 µM
Cc1ccc2occ(C3/C(=N/CCCN4CCOCC4)NC(=O)N3c3ccc4[nH]cnc4c3)c(=O)c2c1 (stereo not drawn) [Compound 263, 1-(1H-Benzoimidazol-5-yl)-5-(6-methyl-4-oxo-4H-chromen-3-yl)-4-3-morpholin-4-yl-propylimino-imidazolidin-2-one] | 1.3 µM
O=C1N/C(=N/Cc2ccc3[nH]ccc3c2)C(c2cc(Br)cc(Br)c2)N1c1ccc2nc[nH]c2c1 (stereo not drawn) [Compound 305, 1-(3H-Benzoimidazol-5-yl)-5-(3,5-dibromo-phenyl)-4-1H-indol-5-ylmethylimino-imidazolidin-2-one] | 0.004 µM
CCCCC1/C(=N\CC(=O)N2CCc3ccccc3C2)NC(=O)N1CCCn1ccnc1 (stereo not drawn) [Compound 74, 5-Butyl-4-2-(3,4-dihydro-1H-isoquinolin-2-yl)-2-oxo-ethylimino-1-(3-imidazol-1-yl-propyl)-imidazolidin-2-one] | 7.6 µM
O=C1N/C(=N\C2CCCCC2)C(c2cc(Br)cs2)N1c1ccc2[nH]cnc2c1 (stereo not drawn) [Compound 184] | 1.3 µM
COCC/N=C1/NC(=O)N(c2ccc3[nH]cnc3c2)C1c1ccc(C)cc1 (stereo not drawn) [Compound 308, 1-(1H-Benzoimidazol-5-yl)-4-2-methoxy-ethylimino-5-p-tolyl-imidazolidin-2-one] | 1.3 µM
O=C1N/C(=N\c2ccc(Oc3ccccc3)cc2)C(c2ccc(Cl)c(F)c2)N1CCCn1ccnc1 (stereo not drawn) [Compound 101, 5-(4-Chloro-3-fluoro-phenyl)-1-(3-imidazol-1-yl-propyl)-4-4-phenoxy-phenylimino-imidazolidin-2-one] | 7.6 µM
Cc1ccc(C2/C(=N/C3CCCCCC3)NC(=O)N2c2ccc3nc[nH]c3c2)c(C)c1 (stereo not drawn) [Compound 283, 1-(3H-Benzoimidazol-5-yl)-4-cycloheptylimino-5-(2,4-dimethyl-phenyl)-imidazolidin-2-one] | 0.4 µM
O=C1N/C(=N/CCCc2ccccc2)C(c2cc(Br)cc(Br)c2)N1c1ccc2[nH]cnc2c1 (stereo not drawn) [Compound 303, 1-(1H-Benzoimidazol-5-yl)-5-(3,5-dibromo-phenyl)-4-3-phenyl-propylimino-imidazolidin-2-one] | 0.004 µM
Cc1cccc(C2C(=NCCc3c[nH]c4ccccc34)NC(=O)N2CCCn2ccnc2)c1O (stereo not drawn) [Compound 46, 5-(2-Hydroxy-3-methyl-phenyl)-1-(3-imidazol-1-yl-propyl)-4-2-(1H-indol-3-yl)-ethylimino-imidazolidin-2-one] | 2.2 µM
Cc1ccc(C2/C(=N\c3cccc(C#N)c3)NC(=S)N2c2ccc3[nH]cnc3c2)c(C)c1 (stereo not drawn) [Compound 140, 3-(1-(1H-benzo[d]imidazol-5-yl)-5-(2,4-dimethylphenyl)-2-thioxoimidazolidin-4-ylideneamino)benzo-nitrile] | 8.5 µM
O=C(C/N=C1\NC(=O)N(c2ccc3nc[nH]c3c2)C1c1c(F)ccc(Cl)c1F)N1CCCCC1 (stereo not drawn) [Compound 250, 1-(3H-Benzoimidazol-5-yl)-5-(3-chloro-2,6-difluoro-phenyl)-4-2-oxo-2-piperidin-1-yl-ethylimino-imidazolidin-2-one] | 4.9 µM
O=C1N/C(=N/Cc2cccnc2)C(c2cccc(F)c2)N1CCCn1ccnc1 (stereo not drawn) [Compound 91, 5-(3-Fluoro-phenyl)-1-(3-imidazol-1-yl-propyl)-4-pyridin-3-ylmethylimino-imidazolidin-2-one] | 8.5 µM
O=C(CN=C1NC(=O)N(c2ccc3[nH]cnc3c2)C1c1ccc(Cl)c(F)c1)N1CCC(O)C1 (stereo not drawn) [Compound 281, 1-(1H-Benzoimidazol-5-yl)-5-(4-chloro-3-fluoro-phenyl)-4-2-(3-hydroxy-pyrrolidin-1-yl)-2-oxo-ethylimino-imidazolidin-2-one] | 6.7 µM

More lines, in order of falling IC50, values ahead:

IC50 | Compound
8.5 µM | Cc1nc[nH]c1C1/C(=N/C2CCCCC2O)NC(=O)N1c1ccc2[nH]cnc2c1 (stereo not drawn) [Compound 142, 3-(1H-Benzoimidazol-5-yl)-5-2-hydroxy-cyclohexylimino-5′-methyl-1,3,4,5-tetrahydro-3′H-4,4′biimidazolyl-2-one]
8.5 µM | CCCC1/C(=N\c2ccc3c(c2)OCCO3)NC(=O)N1CCCn1ccnc1 (stereo not drawn) [Compound 29, 4-2,3-Dihydro-benzo1,4dioxin-6-ylimino-1-(3-imidazol-1-yl-propyl)-5-propyl-imidazolidin-2-one]
5.8 µM | CN(C)CCCN=C1NC(=O)N(c2ccc3[nH]cnc3c2)C1c1ccc2ccccc2c1 (stereo not drawn) [Compound 157, 1-(1H-Benzoimidazol-5-yl)-4-3-dimethylamino-propylimino-5-naphthalen-2-yl-imidazolidin-2-one]
5.8 µM | S=C1N/C(=N\C2CCCc3ccccc32)C(c2cccc(Br)c2)N1c1ccc2[nH]cnc2c1 (stereo not drawn) [Compound 161, 1-(1H-Benzoimidazol-5-yl)-5-(3-bromo-phenyl)-4-1,2,3,4-tetrahydro-naphthalen-1-ylimino-imidazolidine-2-thione]
5.8 µM | Cc1ccc(C2/C(=N/C(C)(C)CC(C)(C)C)NC(=S)N2c2ccc3nc[nH]c3c2)cc1 (stereo not drawn) [Compound 118, 1-(3H-Benzoimidazol-5-yl)-4-1,1,3,3-tetramethyl-butylimino-5-p-tolyl-imidazolidine-2-thione]
4.9 µM | Cc1ccc2occ(C3/C(=N/CCCN4CCCC4=O)NC(=O)N3c3ccc4[nH]cnc4c3)c(=O)c2c1 (stereo not drawn) [Compound 267, 1-(1H-Benzoimidazol-5-yl)-5-(6-methyl-4-oxo-4H-chromen-3-yl)-4-3-(2-oxo-pyrrolidin-1-yl)-propylimino-imidazolidin-2-one]
4 µM | S=C1N/C(=N/Cc2ccccc2)C(c2ccc(Cl)cc2)N1c1ccc2[nH]cnc2c1 (stereo not drawn) [Compound 251, 1-(1H-Benzoimidazol-5-yl)-4-benzylimino-5-(4-chloro-phenyl)-imidazolidine-2-thione]
3.1 µM | O=C1N/C(=N\C(Cc2ccccc2)c2ccccc2)C(C2=CCCCC2)N1c1ccc2[nH]cnc2c1 (stereo not drawn) [Compound 169, 1-(1H-Benzoimidazol-5-yl)-5-cyclohex-1-enyl-4-1,2-diphenyl-ethylimino-imidazolidin-2-one]
3.1 µM | Cc1cccc(C2/C(=N\Cn3nnc4ccccc43)NC(=O)N2c2ccc3[nH]cnc3c2)c1 (stereo not drawn) [Compound 324, 1-(1H-Benzoimidazol-5-yl)-4-benzotriazol-1-ylmethylimino-5-m-tolyl-imidazolidin-2-one]
2.2 µM | O=C(C/N=C1\NC(=S)N(c2ccc3[nH]cnc3c2)C1c1cc(Br)cc(Br)c1)N1CCSCC1 (stereo not drawn) [Compound 125, 2-(1-(1H-benzo[d]imidazol-5-yl)-5-(3,5-dibromophenyl)-2-thioxoimidazolidin-4-ylideneamino)-1-thiomorpholinoethan-one]
1.3 µM | O=C1N/C(=N\c2ccc3c(c2)OCCO3)C(c2ccc3c(c2)OCO3)N1c1ccc2[nH]cnc2c1 (stereo not drawn) [Compound 292, 5-Benzo1,3dioxol-5-yl-1-(1H-benzoimidazol-5-yl)-4-2,3-dihydro-benzo1,4dioxin-6-ylimino-imidazolidin-2-one]
0.4 µM | O=C(CN=C1NC(=S)N(c2ccc3nc[nH]c3c2)C1c1cc(Br)cs1)N1CCCCC1 (stereo not drawn) [Compound 187, 2-(1-(1H-benzo[d]imidazol-6-yl)-5-(4-bromothiophen-2-yl)-2-thioxoimidazolidin-4-ylideneamino)-1-(piperidin-1-yl)ethanone]
0.4 µM | O=C(C/N=C1\NC(=O)N(c2ccc3[nH]cnc3c2)C1c1c(F)ccc(Cl)c1F)N1CCCC(O)C1 (stereo not drawn) [Compound 154, 1-(1H-Benzoimidazol-5-yl)-5-(3-chloro-2,6-difluoro-phenyl)-4-2-(3-hydroxy-piperidin-1-yl)-2-oxo-ethylimino-imidazolidin-2-one]
0.004 µM | O=C1N/C(=N/Cc2ccccc2)C(c2ccc(Cl)cc2)N1c1ccc2[nH]cnc2c1 (stereo not drawn) [Compound 162, 1-(1H-Benzoimidazol-5-yl)-4-benzylimino-5-(4-chloro-phenyl)-imidazolidin-2-one]
